Reference: patent publication US9150553B2, “Carboxamide compounds and their use as calpain inhibitors” (AbbVie Deutschland GmbH & Co. KG, priority 2007, dated 2015)

How the values were obtained:
Assay type in all cases: biochemical
[1] = biological target: T1, calpain-I isolated from human erythrocytes (Homo sapiens, UniProt P07384); assay: Calpain I enzyme inhibition, kinetic fluorescence assay; details: apparent Ki from IC50 by Cheng-Prussoff; pH 7.3, room temperature
T1 construct: calpain-I—isolated from human erythrocytes; purchased Calbiochem 208713; host or cells: human erythrocytes (native tissue isolate)
T1 sequence (P07384 1-714): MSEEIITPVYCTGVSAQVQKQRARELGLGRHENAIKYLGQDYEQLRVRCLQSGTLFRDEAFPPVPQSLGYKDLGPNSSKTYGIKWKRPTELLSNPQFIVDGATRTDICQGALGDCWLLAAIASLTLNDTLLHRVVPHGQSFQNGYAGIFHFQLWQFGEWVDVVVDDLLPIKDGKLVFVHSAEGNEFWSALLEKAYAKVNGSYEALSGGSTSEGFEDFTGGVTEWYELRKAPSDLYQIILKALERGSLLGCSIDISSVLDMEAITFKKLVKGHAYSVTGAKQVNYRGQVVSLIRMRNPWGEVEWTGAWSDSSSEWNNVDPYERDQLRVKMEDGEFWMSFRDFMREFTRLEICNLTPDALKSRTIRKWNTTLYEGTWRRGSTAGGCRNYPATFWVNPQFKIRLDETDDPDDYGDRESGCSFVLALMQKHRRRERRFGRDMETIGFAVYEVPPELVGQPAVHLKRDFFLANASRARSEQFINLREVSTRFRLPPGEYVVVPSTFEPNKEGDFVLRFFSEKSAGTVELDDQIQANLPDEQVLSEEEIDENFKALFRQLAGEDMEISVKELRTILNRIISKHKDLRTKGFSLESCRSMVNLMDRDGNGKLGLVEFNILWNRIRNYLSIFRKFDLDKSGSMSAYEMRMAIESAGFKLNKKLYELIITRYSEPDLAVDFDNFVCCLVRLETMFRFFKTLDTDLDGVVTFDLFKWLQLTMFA
T1 sequence (P04632 1-268 partner): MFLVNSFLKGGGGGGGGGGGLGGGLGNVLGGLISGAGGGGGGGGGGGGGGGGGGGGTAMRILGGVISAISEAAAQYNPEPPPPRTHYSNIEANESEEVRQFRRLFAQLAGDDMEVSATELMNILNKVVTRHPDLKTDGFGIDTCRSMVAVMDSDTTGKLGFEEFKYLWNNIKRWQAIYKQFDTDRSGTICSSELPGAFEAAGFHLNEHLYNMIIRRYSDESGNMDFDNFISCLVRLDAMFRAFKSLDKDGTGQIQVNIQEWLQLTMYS
Protocol: The following solutions and buffers were employed: • HBS (for 40 ml): 800 μl 1M HEPES; 2.16 ml 100 mM KCl; 4.8 ml 1M NaCl; 3.59 ml 5% glucose; 60 μl 1M MgSO4; 400 μl 100 mM Na pyruvate, 28.19 ml water; pH 7.2-7.5. • lysis buffer (for 20 ml): 400 μl 1M Tris pH 8.2; 2.74 ml 1M NaCl; 520 μl 0.5M EDTA; 2 ml 10% triton X-100; 0.8 ml (=1:25) CompletePlus (1 tablet/2 ml H2O); 200 μl 100 mM Pefabloc; 13.34 ml water, pH 8.2. • TBST (10×) (for 1I): 100 mM Tris (12.1 g); 1.5M NaCl (87 g); 1% Tween 20 (10 g), adjusted to pH 8. I. Enzyme Inhibition In Vitro: • Testing for blockade of the corresponding enzymic activities was carried out by means of kinetic fluorescence assays (excitation 390 nm, emission 460 nm). • Apparent Ki values were calculated from the experimentally determined IC50 values by the Cheng-Prussoff relation assuming a reversible competitive enzyme inhibition. The Km values of the substrates used under the assay conditions indicated above were: 90 μM (Z-Phe-Arg-AMC, cathepsin B), 10 μM (Z-Gly-Pro-Arg-AMC, cathepsin K), 2 μM (Z-Phe-Arg-AMC, cathepsin L), and 30 μM (Z-Val-Val-Arg-AMC, cathepsin S). • The indicated Ki values are averages of the inhibition constants calculated on the basis of 2 to 4 independent dose-effect plots. • The following assays were used: • 1. Calpain I: • 20 nM calpain-I—isolated from human erythrocytes (Calbiochem #208713), 100 μM Suc-Leu-Tyr-AMC (Bachem #I-1355) as substrate in buffer with 62 mM imidazole, 0.3 mM CaCl2, 0.10% CHAPS, 0.05% BSA, 1 mM DTT at pH 7.3 and room temperature. • 2. Cathepsin B: • 0.25 nM cathepsin B—isolated from human liver (Calbiochem #219362), 100 μM Z-Phe-Arg-AMC (Bachem #I-1160) as substrate 50 mM MES, 2 mM EDTA, 0.05% Brij 35, 2.5 mM L-cysteine, pH 6.0, room temperature. • 3. Cathepsin K: • 3 nM cathepsin K—activated from recombinant human procathepsin K from E. coli (Calbiochem #342001), 10 μM Z-Gly-Pro-Arg-AMC (Biomol #P-142) as substrate in 50 mM MES, 2 mM EDTA, 0.05% Brij 35, 2.5 mM L-cysteine, pH 6.0, room temperature. • 4. Cathepsin L: • 1 nM cathepsin L—isolated from human liver (Calbiochem #219402), 2 μM Z-Phe-Arg-AMC (Bachem #I-1160) as substrate in 50 mM MES, 2 mM EDTA, 0.05% Brij 35, 2.5 mM L-cysteine, pH 6.0, room temperature. • 5. Cathepsin S: • 0.5 nM recombinant human cathepsin S from E. coli (Calbiochem #219343), 20 μM Z-Val-Val-Arg-AMC (Bachem #I-1540) as substrate in 50 mM MES, 2 mM EDTA, 0.05% Brij 35, 2.5 mM L-cysteine, pH 6.0, room temperature. • The results of the in vitro determination are indicated in Table 2. The following abbreviations are used in Table 2: • The “Calpain activity” column, ++ stands for a calpain Ki (Ki(calpain)) of ≦40 nM, + means: 40 nM<Ki(Calpain)≦100 nM, 0 means 100 nM<Ki(Calpain)≦1 μM, − means 1 μM<Ki(Calpain)≦10 μM, −− means Ki(Calpain)>10 μM. • The “Sel. cat. B” column indicates the Ki(cathepsin B)/Ki(calpain) ratio. In this connection, ++ means a Ki(cathepsin B)/Ki(calpain) ratio of ≧30 and + means≦10≦Ki(cathepsin B)/Ki(calpain)<30. • The “Sel. cat. K” column indicates the Ki(cathepsin K)/Ki(calpain) ratio. In this connection, ++ means a Ki(cathepsin K)/Ki(calpain) ratio of ≧30 and + means 10≦Ki(cathepsin K)/Ki(calpain)<30. • The “Sel. cat. L” column indicates the Ki(cathepsin L)/Ki(calpain) ratio. In this connection, ++ means a Ki(cathepsin L)/Ki(calpain) ratio of ≧50 and + means 30≦Ki(cathepsin L)/Ki(calpain)<50. • The “Sel. cat. S” column indicates the Ki(cathepsin S)/Ki(calpain) ratio. […]

[2] = biological target: T2, cathepsin B isolated from human liver (Homo sapiens, UniProt P07858); assay: Cathepsin B enzyme inhibition, kinetic fluorescence assay; details: selectivity ratio
T2 construct: cathepsin B—isolated from human liver; purchased Calbiochem 219362; host or cells: human liver (native tissue isolate)
Protocol: (§1) The following solutions and buffers were employed: • HBS (for 40 ml): 800 μl 1M HEPES; 2.16 ml 100 mM KCl; 4.8 ml 1M NaCl; 3.59 ml 5% glucose; 60 μl 1M MgSO4; 400 μl 100 mM Na pyruvate, 28.19 ml water; pH 7.2-7.5. • lysis buffer (for 20 ml): 400 μl 1M Tris pH 8.2; 2.74 ml 1M NaCl; 520 μl 0.5M EDTA; 2 ml 10% triton X-100; 0.8 ml (=1:25) CompletePlus (1 tablet/2 ml H2O); 200 μl 100 mM Pefabloc; 13.34 ml water, pH 8.2. • TBST (10×) (for 1I): 100 mM Tris (12.1 g); 1.5M NaCl (87 g); 1% Tween 20 (10 g), adjusted to pH 8. I. Enzyme Inhibition In Vitro: • Testing for blockade of the corresponding enzymic activities was carried out by means of kinetic fluorescence assays (excitation 390 nm, emission 460 nm). • Apparent Ki values were calculated from the experimentally determined IC50 values by the Cheng-Prussoff relation assuming a reversible competitive enzyme inhibition. The Km values of the substrates used under the assay conditions indicated above were: 90 μM (Z-Phe-Arg-AMC, cathepsin B), 10 μM (Z-Gly-Pro-Arg-AMC, cathepsin K), 2 μM (Z-Phe-Arg-AMC, cathepsin L), and 30 μM (Z-Val-Val-Arg-AMC, cathepsin S). • The indicated Ki values are averages of the inhibition constants calculated on the basis of 2 to 4 independent dose-effect plots. • The following assays were used: • 1. Calpain I: • 20 nM calpain-I—isolated from human erythrocytes (Calbiochem #208713), 100 μM Suc-Leu-Tyr-AMC (Bachem #I-1355) as substrate in buffer with 62 mM imidazole, 0.3 mM CaCl2, 0.10% CHAPS, 0.05% BSA, 1 mM DTT at pH 7.3 and room temperature. • 2. Cathepsin B: • 0.25 nM cathepsin B—isolated from human liver (Calbiochem #219362), 100 μM Z-Phe-Arg-AMC (Bachem #I-1160) as substrate 50 mM MES, 2 mM EDTA, 0.05% Brij 35, 2.5 mM L-cysteine, pH 6.0, room temperature. • 3. Cathepsin K: • 3 nM cathepsin K—activated from recombinant human procathepsin K from E. coli (Calbiochem #342001), 10 μM Z-Gly-Pro-Arg-AMC (Biomol #P-142) as substrate in 50 mM MES, 2 mM EDTA, 0.05% Brij 35, 2.5 mM L-cysteine, pH 6.0, room temperature. • 4. […]

[3] = biological target: T3, cathepsin L isolated from human liver (Homo sapiens, UniProt P07711); assay: Cathepsin L enzyme inhibition, kinetic fluorescence assay; details: selectivity ratio
T3 construct: cathepsin L—isolated from human liver; purchased Calbiochem 219402; host or cells: human liver (native tissue isolate)
T3 sequence (P07711 114-333): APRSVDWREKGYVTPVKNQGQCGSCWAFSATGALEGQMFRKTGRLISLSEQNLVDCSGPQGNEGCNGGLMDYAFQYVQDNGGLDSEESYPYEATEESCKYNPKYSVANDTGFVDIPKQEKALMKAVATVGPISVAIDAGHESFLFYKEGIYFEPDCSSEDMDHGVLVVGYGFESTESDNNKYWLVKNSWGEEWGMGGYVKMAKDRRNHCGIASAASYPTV
Protocol: as §1

[4] = biological target: T4, recombinant human cathepsin S (Homo sapiens, UniProt P25774); assay: Cathepsin S enzyme inhibition, kinetic fluorescence assay; details: selectivity ratio
T4 construct: purchased Calbiochem 219343; host or cells: E. coli
T4 sequence (P25774 115-331): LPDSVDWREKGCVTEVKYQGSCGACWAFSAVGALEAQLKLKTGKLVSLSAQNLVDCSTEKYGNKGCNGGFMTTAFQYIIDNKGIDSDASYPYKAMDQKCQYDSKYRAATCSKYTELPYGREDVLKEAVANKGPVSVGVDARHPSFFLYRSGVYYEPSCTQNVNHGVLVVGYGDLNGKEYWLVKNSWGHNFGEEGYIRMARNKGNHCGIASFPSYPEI
Protocol: as §1

[5] = biological target: T5, cathepsin K activated from recombinant human procathepsin K (Homo sapiens, UniProt P43235); assay: Cathepsin K enzyme inhibition, kinetic fluorescence assay; details: selectivity ratio
T5 construct: purchased Calbiochem 342001; host or cells: E. coli
T5 sequence (P43235 115-329): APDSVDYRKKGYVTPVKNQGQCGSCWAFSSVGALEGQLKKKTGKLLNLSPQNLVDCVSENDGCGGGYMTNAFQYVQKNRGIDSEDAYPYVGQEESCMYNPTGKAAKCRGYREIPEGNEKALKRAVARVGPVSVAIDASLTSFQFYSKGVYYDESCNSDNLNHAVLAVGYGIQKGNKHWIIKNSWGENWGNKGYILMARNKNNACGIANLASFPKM
Protocol: as §1

In the case of `NC(=O)C1(C(Cc2ccc(F)cc2)NC(=O)c2cccnc2-n2ccc(-c3ccc(Cl)cc3Cl)n2)OCCO1` (stereo not shown) [Compound I-1, N-[1-[2-(Aminocarbonyl)-1,3-dioxolan-2-yl]-2-(4-fluorophenyl)ethyl]-2-[3-(2,4-dichlorophenyl)-1H-pyrazol-1-yl]nicotinamide], the Ki [1] is reported as greater than 10000 nM.
`NC(=O)C(=O)C(Cc1ccccc1)NC(=O)c1cccnc1-n1ccc(-c2cccc(C(F)(F)F)c2)n1` (stereo not shown) [Compound II-2, N-(3-Amino-1-benzyl-2,3-dioxopropyl)-2-{3-[3-(trifluoromethyl)phenyl]-1H-pyrazol-1-yl}nicotinamide] was tested, and the “Sel cat. B: Ki(cathepsin B)/Ki(calpain) ratio” value [2] was “+ (+ means≦10≦Ki(cathepsin B)/Ki(calpain)<30)”, the Ki [1] was no more than 40 nM and the “Sel cat. L: Ki(cathepsin L)/Ki(calpain) ratio” value [3] was “++ (++ means a Ki(cathepsin L)/Ki(calpain) ratio of ≧50)”. The “Sel cat. S: Ki(cathepsin S)/Ki(calpain) ratio” value [4] was “++ (++ means a Ki(cathepsin S)/Ki(calpain) ratio of ≧100)” and the “Sel cat. K: Ki(cathepsin K)/Ki(calpain) ratio” value [5] was “++ (++ means a Ki(cathepsin K)/Ki(calpain) ratio of ≧30)”.
In the case of `NC(=O)C(=O)C(Cc1ccc(F)cc1)NC(=O)c1cccnc1-n1ccc(-c2ccc(Cl)cc2Cl)n1` (stereo not shown) [II-1, N-[3-amino-1-(4-fluorobenzyl)-2,3-dioxopropyl]-2-[3-(2,4-dichlorophenyl)-1H-pyrazol-1-yl]nicotinamide], the “Sel cat. B: Ki(cathepsin B)/Ki(calpain) ratio” value [2] is reported as “++ (++ means a Ki(cathepsin B)/Ki(calpain) ratio of ≧30)”, the Ki [1] is reported as 40 to 100 nM and the “Sel cat. L: Ki(cathepsin L)/Ki(calpain) ratio” value [3] is reported as “++ (++ means a Ki(cathepsin L)/Ki(calpain) ratio of ≧50)”. For the same compound, the “Sel cat. S: Ki(cathepsin S)/Ki(calpain) ratio” value [4] was “++ (++ means a Ki(cathepsin S)/Ki(calpain) ratio of ≧100)” and the “Sel cat. K: Ki(cathepsin K)/Ki(calpain) ratio” value [5] was “++ (++ means a Ki(cathepsin K)/Ki(calpain) ratio of ≧30)”.
In the case of `NC(=O)C(=O)C(Cc1ccccc1)NC(=O)c1cccnc1-n1ccc(-c2ccc(F)cc2)n1` (stereo not shown) [II-3, N-(3-amino-1-benzyl-2,3-dioxopropyl)-2-[3-(4-fluorophenyl)-1H-pyrazol-1-yl]nicotinamide], the “Sel cat. B: Ki(cathepsin B)/Ki(calpain) ratio” value [2] is reported as “+ (+ means≦10≦Ki(cathepsin B)/Ki(calpain)<30)”, the Ki [1] is reported as 40 to 100 nM and the “Sel cat. L: Ki(cathepsin L)/Ki(calpain) ratio” value [3] is reported as “++ (++ means a Ki(cathepsin L)/Ki(calpain) ratio of ≧50)”. The “Sel cat. S: Ki(cathepsin S)/Ki(calpain) ratio” value [4] was “++ (++ means a Ki(cathepsin S)/Ki(calpain) ratio of ≧100)” and the “Sel cat. K: Ki(cathepsin K)/Ki(calpain) ratio” value [5] was “+ (+ means 10≦Ki(cathepsin K)/Ki(calpain)<30)”.
